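Protocol summary: plate cells (96-well), add compound at 5 concentrations, incubate 48 h, interpolate endpoints linearly. GI50 marks 50% less growth.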 The source made the active and inactive calls. Rule as the data show it: active = GI50 up to about 1.1 µM and inactive = higher.
How the values were obtained:
Experiment in all cases: inhibition of tumour cell growth, NCI panel, 48 h
786-0 = system: 786-0
COLO 205 = system: COLO 205
EKVX = system: EKVX
HOP-62 = system: HOP-62
K562 = system: K562
NCI-H23 = system: NCI-H23
OVCAR-4 = system: OVCAR-4
OVCAR-8 = system: OVCAR-8
SF-268 = system: SF-268
SF-295 = system: SF-295
SK-OV-3 = system: SK-OV-3
SR = system: SR
U-251 = system: U-251
UACC-62 = system: UACC-62
M14 = system: M14
OVCAR-3 = system: OVCAR-3
RPMI-8226 = system: RPMI-8226

Compound	GI50 (786-0)	GI50 (COLO 205)	GI50 (EKVX)	GI50 (HOP-62)	GI50 (K562)	GI50 (NCI-H23)	GI50 (OVCAR-4)	GI50 (OVCAR-8)	GI50 (SF-268)	GI50 (SF-295)	GI50 (SK-OV-3)	GI50 (SR)	GI50 (U-251)	GI50 (UACC-62)	GI50 (M14)	GI50 (OVCAR-3)	GI50 (RPMI-8226)
O=C(N/N=C/c1cc(Br)ccc1O)N/N=C/c1cc(Br)ccc1O	4.93 µM (inactive)	4.45 µM (inactive)	4.93 µM (inactive)	4.46 µM (inactive)	0.377 µM (active)	2.31 µM (inactive)	3.72 µM (inactive)	2.54 µM (inactive)	5.75 µM (inactive)	3.84 µM (inactive)	69 µM (inactive)	3.5 µM (inactive)	3.55 µM (inactive)	2.24 µM (inactive)	–	–	–
COc1ccc(/C=N\N2C(=O)Cc3ccccc32)cc1	> 100 µM (inactive)	> 100 µM (inactive)	> 100 µM (inactive)	64.1 µM (inactive)	95.5 µM (inactive)	> 100 µM (inactive)	> 100 µM (inactive)	> 100 µM (inactive)	74.3 µM (inactive)	51.6 µM (inactive)	> 100 µM (inactive)	–	48.4 µM (inactive)	> 100 µM (inactive)	86.1 µM (inactive)	> 100 µM (inactive)	> 100 µM (inactive)
CCOC(=O)CCC(NC(=O)c1ccc(NC(OC)c2nc3cc(C(F)(F)F)ccc3nc2-c2ccccc2)cc1)C(=O)OCC (stereo unspecified)	12.7 µM (inactive)	16.5 µM (inactive)	18 µM (inactive)	17 µM (inactive)	2.89 µM (inactive)	16 µM (inactive)	21.5 µM (inactive)	10.3 µM (inactive)	16.6 µM (inactive)	16.2 µM (inactive)	18.1 µM (inactive)	–	15.6 µM (inactive)	16.9 µM (inactive)	15.4 µM (inactive)	18.5 µM (inactive)	6.41 µM (inactive)
CSc1ccc(Cc2cc(C(C)(C)C)cc(C(C)(C)C)c2O)cc1	16.7 µM (inactive)	–	18.2 µM (inactive)	20.6 µM (inactive)	12 µM (inactive)	14.5 µM (inactive)	15.4 µM (inactive)	16.9 µM (inactive)	15.8 µM (inactive)	17.6 µM (inactive)	27 µM (inactive)	8.75 µM (inactive)	14.8 µM (inactive)	15.3 µM (inactive)	15.1 µM (inactive)	–	4.45 µM (inactive)
C=CCN1C(=O)C/C(=C2/CCC(=O)N2CC=C)C1=O	> 100 µM (inactive)	> 100 µM (inactive)	> 100 µM (inactive)	88.7 µM (inactive)	> 100 µM (inactive)	> 100 µM (inactive)	> 100 µM (inactive)	> 100 µM (inactive)	> 100 µM (inactive)	> 100 µM (inactive)	> 100 µM (inactive)	> 100 µM (inactive)	> 100 µM (inactive)	> 100 µM (inactive)	> 100 µM (inactive)	> 100 µM (inactive)	–
COC(=O)/C(=N\Nc1nnc(C)n1N)C(C#N)c1ccc(Cl)cc1 (stereo unspecified)	34.7 µM (inactive)	95.1 µM (inactive)	> 100 µM (inactive)	> 100 µM (inactive)	–	> 100 µM (inactive)	> 100 µM (inactive)	> 100 µM (inactive)	> 100 µM (inactive)	> 100 µM (inactive)	> 100 µM (inactive)	–	> 100 µM (inactive)	> 100 µM (inactive)	> 100 µM (inactive)	> 100 µM (inactive)	> 100 µM (inactive)
O=C(CCC(=O)Nc1ccc(Cl)cc1)CC(=O)c1ccc(F)cc1	> 100 µM (inactive)	> 100 µM (inactive)	–	> 100 µM (inactive)	> 100 µM (inactive)	> 100 µM (inactive)	> 100 µM (inactive)	> 100 µM (inactive)	> 100 µM (inactive)	> 100 µM (inactive)	> 100 µM (inactive)	> 100 µM (inactive)	–	> 100 µM (inactive)	> 100 µM (inactive)	> 100 µM (inactive)	> 100 µM (inactive)
C=CCN(N=O)C(=O)N(CCCCC(NC(C)=O)C(=O)NCc1ccccc1)Cc1ccccc1 (stereo unspecified)	28.6 µM (inactive)	23.8 µM (inactive)	38.1 µM (inactive)	57.9 µM (inactive)	26.9 µM (inactive)	46.5 µM (inactive)	25.9 µM (inactive)	35.2 µM (inactive)	41.9 µM (inactive)	31 µM (inactive)	> 100 µM (inactive)	–	42.5 µM (inactive)	34.6 µM (inactive)	22.6 µM (inactive)	30.3 µM (inactive)	16.1 µM (inactive)
O=C1CC[C@H]2CNC(=O)C[C@H]2C1	> 100 µM (inactive)	> 100 µM (inactive)	> 100 µM (inactive)	> 100 µM (inactive)	> 100 µM (inactive)	> 100 µM (inactive)	> 100 µM (inactive)	> 100 µM (inactive)	> 100 µM (inactive)	> 100 µM (inactive)	> 100 µM (inactive)	–	> 100 µM (inactive)	> 100 µM (inactive)	> 100 µM (inactive)	> 100 µM (inactive)	> 100 µM (inactive)
Cc1cccc2c(=O)cc(-c3ccccc3)[nH]c12	4.78 µM (inactive)	4.36 µM (inactive)	46.2 µM (inactive)	3.64 µM (inactive)	2 µM (inactive)	4.91 µM (inactive)	4.09 µM (inactive)	–	8.15 µM (inactive)	4.09 µM (inactive)	–	6.93 µM (inactive)	21.9 µM (inactive)	4.21 µM (inactive)	3.45 µM (inactive)	3.31 µM (inactive)	5.4 µM (inactive)
O=C1c2ccccc2OP(=O)(OCC(F)(F)F)OC1(C(F)(F)F)C(F)(F)F (stereo unspecified)	> 100 µM (inactive)	> 100 µM (inactive)	> 100 µM (inactive)	> 100 µM (inactive)	> 100 µM (inactive)	> 100 µM (inactive)	> 100 µM (inactive)	> 100 µM (inactive)	> 100 µM (inactive)	> 100 µM (inactive)	> 100 µM (inactive)	> 100 µM (inactive)	> 100 µM (inactive)	> 100 µM (inactive)	> 100 µM (inactive)	–	> 100 µM (inactive)
CCOC(=O)/C(C(=O)c1ccccc1)=C1\N[C@H](C(=O)OCC)CS1	10 µM (inactive)	> 100 µM (inactive)	> 100 µM (inactive)	> 100 µM (inactive)	> 100 µM (inactive)	> 100 µM (inactive)	> 100 µM (inactive)	> 100 µM (inactive)	> 100 µM (inactive)	> 100 µM (inactive)	–	> 100 µM (inactive)	> 100 µM (inactive)	> 100 µM (inactive)	> 100 µM (inactive)	> 100 µM (inactive)	> 100 µM (inactive)
O=C1NC(=O)C2C(=O)NC(=O)C1C2(c1ccccc1)c1cc[nH]c1 (stereo unspecified)	> 100 µM (inactive)	> 100 µM (inactive)	> 100 µM (inactive)	> 100 µM (inactive)	> 100 µM (inactive)	> 100 µM (inactive)	> 100 µM (inactive)	> 100 µM (inactive)	> 100 µM (inactive)	> 100 µM (inactive)	> 100 µM (inactive)	–	–	> 100 µM (inactive)	> 100 µM (inactive)	> 100 µM (inactive)	> 100 µM (inactive)
O=C(Cc1ccccc1[N+](=O)[O-])C(CO)c1ccccc1[N+](=O)[O-] (stereo unspecified)	> 100 µM (inactive)	> 100 µM (inactive)	70.6 µM (inactive)	> 100 µM (inactive)	71.1 µM (inactive)	45.3 µM (inactive)	96.4 µM (inactive)	89.5 µM (inactive)	35.2 µM (inactive)	> 100 µM (inactive)	> 100 µM (inactive)	–	> 100 µM (inactive)	83 µM (inactive)	> 100 µM (inactive)	66.1 µM (inactive)	78.7 µM (inactive)
Cc1ccc(S(=O)(=O)N/N=C(\CCN2CCCC2)CC(c2ccccc2)c2c(O)c3ccccc3oc2=O)cc1 (stereo unspecified)	> 100 µM (inactive)	–	> 100 µM (inactive)	> 100 µM (inactive)	88.9 µM (inactive)	> 100 µM (inactive)	> 100 µM (inactive)	> 100 µM (inactive)	> 100 µM (inactive)	> 100 µM (inactive)	> 100 µM (inactive)	> 100 µM (inactive)	> 100 µM (inactive)	> 100 µM (inactive)	> 100 µM (inactive)	> 100 µM (inactive)	> 100 µM (inactive)
COc1ccc(C(C#N)Cc2cc(OC)c(OC)c(OC)c2)cc1 (stereo unspecified)	44.1 µM (inactive)	19.2 µM (inactive)	40.7 µM (inactive)	22.3 µM (inactive)	4.99 µM (inactive)	–	39.3 µM (inactive)	37 µM (inactive)	49.2 µM (inactive)	10.3 µM (inactive)	–	–	29.6 µM (inactive)	27.8 µM (inactive)	33.4 µM (inactive)	31.4 µM (inactive)	23.4 µM (inactive)
CCOC(=O)NC(=O)c1cn(C2OC(COC(=O)CCCCCCCCC(=O)OCC3OC(n4cc(C(=O)NC(=O)OCC)c(=O)[nH]c4=O)C(O)C3O)C(O)C2O)c(=O)[nH]c1=O (stereo unspecified)	> 100 µM (inactive)	–	> 100 µM (inactive)	> 100 µM (inactive)	> 100 µM (inactive)	> 100 µM (inactive)	> 100 µM (inactive)	> 100 µM (inactive)	> 100 µM (inactive)	> 100 µM (inactive)	–	> 100 µM (inactive)	–	> 100 µM (inactive)	> 100 µM (inactive)	> 100 µM (inactive)	> 100 µM (inactive)

— ChEMBL document CHEMBL1201862, “PubChem BioAssay data set” (2004)
